Measured values: patent publication US9738720B2, “Monoclonal antibodies against HER2 epitope and methods of use thereof” (Mersana Therapeutics, Inc., priority 2014, dated 2017)

Assays:
[1] = system: phosphorylated AKT in BT474 cells; assay: Ligand-independent HER2 signaling in BT474 cells, phospho-AKT western; assay type: cell-based; settings: 10 μg/ml antibody, 4 hours, listed as HT19B
Protocol: The effect of anti-HER2 antibodies on HER2 signaling in BT474 cells (ATCC, HTB-20) was determined by measuring changes in the amount of phosphorylated AKT after a 4 hour antibody treatment. BT474 cells (300,000 cells) were plated in DMEM media with 10% FBS in each well of 6 well culture dishes and grown overnight at 37° in 5% CO2 atmosphere. The media was removed and replaced with fresh media containing 10 μg/ml of test antibody and incubated for 4 hours. The cells were washed once with ice cold PBS and lysed by addition of 200 μl of buffer containing 50 mM Tris HCl, pH 7.4, 150 mM NaCl, 1% Triton X-100, cOmplete Protease Inhibitor cocktail tablets (Roche, Indianapolis, Ind.) and PhosSTOP phosphatase Inhibitor cocktail tablets (Roche, Indianapolis, Ind.). Lysates were centrifuged at 15,000 rpm for 15 minutes at 4° to remove insoluble debris. The levels of phosphorylated AKT were determined by western analysis. […] The bands corresponding to AKT, phospho-AKT, and to actin were quantified using the scanner software. Each phospho-AKT band was normalized to the total AKT band and expressed as a percentage of phospho-AKT protein from cells that were not treated with any anti-HER2 antibodies.

[2] = system: SKBR3 cells; assay: Internalization rate with anti-HER2 antibody combination; assay type: cell-based
Protocol: For the assay, 40,000 SKBR3 cells were plated in DMEM media containing 10% FBS, in each well of three 96 well plates (black colored plates with clear bottomed wells) and allowed to attach overnight at 37° in 5% CO2. The next day the cells were treated with antibodies as follows. […] The unbound antibody was removed by washing the cells two times with ice cold media. For detection, 5 μg/ml of an Alexa 647 labelled anti-human IgG Fab fragment was added to each well in ice cold media and incubated on ice for 1 hr. The unbound secondary antibody was removed by washing each well 2 times with ice cold media. […] Each treatment was carried out in triplicate. One set of wells were treated with the Alexa 647 labelled anti-human IgG monovalent Fab fragment alone, and the fluorescence measured in these wells was used to subtract background fluorescence.
One plate was left on ice to determine the time 0 values for each treatment, and the other plates were incubated at 37° C. After 1.5 hours, one plate from 37° C., and the time 0 plate, were washed 2 times with ice cold PBS and scanned using the 680 nm channel of a Licor Odyssey scanner. The fluorescence measured in each well is used as the total fluorescence for each treatment. The cells were then acid washed 2 times with 100 mM glycine, 50 mM KCl, and 20 mM […], pH2.2, then washed two times with ice cold PBS to remove the surface bound antibodies. The plates were scanned again to determine the amount of internalized fluorescence in each well. The 24 hour plates were analyzed the same way the next day.

[3] = biological target: T1, HER2 protein in SKBR3 cells (Homo sapiens, UniProt P04626); assay: HER2 degradation, western analysis; assay type: cell-based; settings: 4 hours; for HER2 remaining: 10 μg/ml each, combined with trastuzumab and pertuzumab; for full length HER2, percentage of untreated cells: 10 μg/ml, test antibody alone or in combination with trastuzumab
T1 construct: endogenous in cells; host or cells: SKBR3
Protocol: The effect of anti-HER2 antibodies on HER2 degradation in SKBR3 cells was determined by western analysis after antibody treatment. 300,000 SKBR3 cells were plated in DMEM media with 10% FBS in each well of 6 well culture dishes and grown overnight at 37° in 5% CO2 atmosphere. The media was removed and replaced with fresh media containing 10 μg/ml of each antibody and incubated for 4 hours. The cells were washed once with ice cold PBS and lysed by addition of 200 μl of buffer containing 50 mM Tris HCl, pH 7.4, 150 mM NaCl, 1% Triton X-100, cOmplete Protease Inhibitor cocktail tablets (Roche, Indianapolis, Ind.) and PhosSTOP phosphatase Inhibitor cocktail tablets (Roche, Indianapolis, Ind.). Lysates were centrifuged at 15,000 rpm for 15 minutes at 4° to remove insoluble debris. […] The separated proteins were transferred to a nitrocellulose membrane on a semi-dry electrophoretic transfer system (Bio-Rad, Transblot system) for 30 minutes at 10 volts in transfer buffer (Life Technologies, Cat.# NP0006) containing 10% methanol. […] After the incubation the membrane was washed 3 times with 10 ml TTBS and then incubated for 1 hour with secondary antibodies: a goat anti-rabbit IgG conjugated to IRdye® 800CW (Li-Cor, Cat.#926-32211) and a goat anti-mouse IgG conjugated to IRdye® 680RD (Li-Cor, Cat.#926-68070) both diluted 1:10,000 in blocking buffer. The membrane was again washed 3 times with 10 ml TTBS and scanned on a Li-Cor Odyssey scanner. The bands corresponding to full length HER2 protein and to actin were quantified using the scanner software. Each HER2 band was normalized to the actin band and expressed as a percentage of HER2 protein from cells that were not treated with any anti-HER2 antibodies.

[4] = system: BRE-0333 HER2 1+; assay: BRE-0333 HER2 1+ patient derived xenograft model; assay type: in vivo; settings: FIG. 18; 3 mg/kg IV single dose; n=8
Protocol: (§1) Tumor growth inhibition (% TGI) was defined as the percent difference in median tumor volumes (MTVs) between treated and control groups.
(§2) Treatment efficacy was determined from the incidence and magnitude of regression responses of the tumor size observed during the study. […] In a PR response, the tumor volume was 50% or less of its Day 1 volume for three consecutive measurements during the course of the study, and equal to or greater than 13.5 mm^3 for one or more of these three measurements. In a CR response, the tumor volume was less than 13.5 mm3 for three consecutive measurements during the course of the study. An animal with a CR response at the termination of a study was additionally classified as a tumor-free survivor (TFS). Animals were monitored for regression responses.

[5] = system: BT474 tumor fragments; assay: BT474 mouse tumor xenograft model; assay type: in vivo; settings: FIG. 20; 5 mg/kg or 2 mg/kg IV single dose at day 1
[6] = system: MAXF_1162 HER2 3+; assay: MAXF_1162 HER2 3+ patient derived xenograft model; assay type: in vivo; settings: FIG. 19, n=10
Protocol: as §1, §2

[7] = system: Calu-3 cells; assay: Calu-3 mouse tumor xenograft model; assay type: in vivo; settings: FIG. 17, 5 mg/kg IV single dose at day 1
[8] = system: NCI-N87 cells; assay: NCI-N87 mouse tumor xenograft model; assay type: in vivo; settings: FIG. 12; Example 16F […] single dose day 1; trastuzumab 15 mg/kg + pertuzumab 15 mg/kg weekly for 3 weeks
[9] = system: SKOV3 cells; assay: SKOV3 mouse tumor xenograft model; assay type: in vivo; settings: FIG. 16
[10] = system: H522 cells; assay: H522 mouse tumor xenograft model; assay type: in vivo; settings: FIG. 15; Example 16E 5 mg/kg; Example 17B 5 mg/kg; Kadcyla 10 mg/kg; IV single dose
[11] = system: SNU-5 cells; assay: SNU5 mouse tumor xenograft model; assay type: in vivo; settings: FIG. 13
[12] = system: TOV-21G cells; assay: TOV-21G mouse tumor xenograft model; assay type: in vivo; settings: FIG. 14; Example 16E 5 mg/kg or 2 mg/kg; Kadcyla 10 mg/kg; IV single dose
From the text: as §1
In a PR response, the tumor volume was 50% or less of its Day 1 volume for three consecutive measurements during the course of the study, and equal to or greater than 13.5 mm^3 for one or more of these three measurements. In a CR response, the tumor volume was less than 13.5 mm3 for three consecutive measurements during the course of the study. An animal with a CR response at the termination of a study was additionally classified as a tumor-free survivor (TFS). Animals were monitored for regression responses.
Female NCr nu/nu were inoculated subcutaneously with TOV-21G cells (n=10 for each group). Test compounds or vehicle were dosed IV as a single dose on day 1 or as indicated. Tumor size was measured at the times indicated in FIGS. 8 to 18 using digital calipers. Tumor volume was calculated and was used to determine the delay in tumor growth. Mice were sacrificed when tumors reached a size of 800 to 1500 mm^3. Tumor volumes are reported as the mean±SEM for each group.

[13] = system: low HER2-expressing breast and gastric cancer models; assay: Low HER2-expressing breast and gastric cancer models; assay type: in vivo; settings: conjugate single doses of 1 mg/kg or […]; Kadcyla at doses of 10 mg/kg and above
[14] = Pharmacokinetics and tolerability in non-human primates; settings: therapeutic doses
[15] = in vivo
[16] = system: HER2-driven tumor models; assay: HER2-driven tumor models, combination with trastuzumab and pertuzumab; assay type: in vivo
[17] = system: SKBR3 cells; assay: HER2 internalization in SKBR3 cells by fluorescence microscopy; assay type: cell-based; settings: 90 minutes, in combination with trastuzumab-Alexa-647 and pertuzumab
Protocol: The effect of a combination of anti-HER2 antibodies on the HER2 internalization in SKBR3 cells was investigated by fluorescence microscopy. […] SKBR3 cells were seeded in 4 chamber microscope slides and allowed to attach by overnight growth in DMEM media (ATCC, Manassas, Va., Cat.#30-2002) with 10% fetal bovine serum (FBS) (Gibco®, Life Technologies, Grand Island, N.Y., Cat.#16140-071) at 37° in 5% CO2. […] The location of trastuzumab was visualized using fluorescence microscope.

[18] = with Trastuzumab and Pertuzumab, 0 hr
[19] = with Trastuzumab and Pertuzumab, 24 hrs
[20] = with Trastuzumab and Pertuzumab, […]

| Substance | Percent internalized ([2]; antibody alone, 0 hr) [%] | Percent internalized ([2]; antibody alone, 24 hrs) [%] | Percent internalized ([2]; antibody alone, […]) [%] | Percent internalized [2, 18] [%] | Percent internalized [2, 19] [%] | Percent internalized [2, 20] [%] | Percent internalized ([2]; with Trastuzumab, 0 hr) [%] | Percent internalized ([2]; with Trastuzumab, 24 hrs) [%] | Percent internalized ([2]; with Trastuzumab, […]) [%] | HER2 remaining [3] [%] | other results |
| --- | --- | --- | --- | --- | --- | --- | --- | --- | --- | --- | --- |
| XMT 1520: affinity matured fully human anti-HER2 IgG1 antibody, heavy chain SEQ ID NO: 7, light chain SEQ ID NO: 8 | 2 | 78 | 14 | 3 | 101 | 89 | 2 | 100 | 23 | 31 | AKT phosphorylation, percentage of untreated cells [1]: about 30%; full length HER2, percentage of untreated cells [3]: 68% |
| XMT 1519-(EG2-MI-(10 kDa PHF-BA-(AF-HPA-Ala))) [Example 16H] |  |  |  |  |  |  |  |  |  |  | tumor response [4]: tumor retardation; tumor response [5]: complete tumor regressions; regression responses and tumor free survivors ([6]; 1 mg/kg IV single dose at day 1): 100%; regression responses and tumor free survivors ([6]; 3 mg/kg IV single dose at day 1): 100% |
| XMT 1517: fully human anti-HER2 IgG1 monoclonal antibody, heavy chain SEQ ID NO: 1, light chain SEQ ID NO: 2 | 4 | 83 | 11 | 4 | 107 |  | 3 | 106 | 17 | 40 |  |
| XMT 1519-(EG2-MI-(10 kDa PHF-BA-(AF-HPA-Ala))) [Example 16F] |  |  |  |  |  |  |  |  |  |  | remained tumor free (number of animals) ([7]; Day 60): six; complete responses (number of animals) ([7]; n=10): eight; partial responses (number of animals) ([7]; n=10): two; regression responses ([7]; n=10): 100%; partial response out of ten [8]: one |
| rituximab-(EG2-MI-(10 kDa PHF-BA-(AF-HPA-Ala))) [Example 17B, reference compound] |  |  |  |  |  |  |  |  |  |  | tumor response ([9]; Kadcyla 10 mg/kg, Example 17B 5 mg/kg, IV single dose): did not attain the threshold for therapeutic activity; tumor response [10]: did not attain the threshold for therapeutic activity |
| XMT 1519-(EG2-MI-(10 kDa PHF-BA-(AF-HPA-Ala))) [Example 16E] |  |  |  |  |  |  |  |  |  |  | tumor free survivors ([11]; 2 mg/kg IV single dose): 100%; tumor free survivors ([11]; 5 mg/kg IV single dose): 100%; tumor response [12]: tumor retardation; complete responses (number of animals) ([9]; 5 mg/kg IV single dose, n=10): 10; regressions ([9]; 5 mg/kg IV single dose, n=10): 100%; tumor response [10]: tumor retardation |
| XMT 1519-(EG2-MI-(PHF-BA-(AF-HPA-Ala))) |  |  |  |  |  |  |  |  |  |  | tumor response [13]: complete regression; tolerability [14]: well tolerated; pharmacokinetic profile [15]: excellent pharmacokinetic profile; efficacy in combination with trastuzumab and pertuzumab [16]: synergistic efficacy |
| XMT 1519: fully human anti-HER2 IgG1 monoclonal antibody, heavy chain SEQ ID NO: 5, light chain SEQ ID NO: 6 | 2 | 83 |  | 2 | 88 | 83 | 2 | 107 |  | 42 | effect on HER2 internalization and localization [17]: promotes the internalization and trafficking of HER2 to the lysosomes |
| XMT 1518: affinity matured fully human anti-HER2 IgG1 antibody, heavy chain SEQ ID NO: 3, light chain SEQ ID NO: 4 |  | 88 | 16 | 2 |  | 90 | 2 | 106 | 41 | 20 | full length HER2, percentage of untreated cells [3]: 78% |
